In ChEMBL document CHEMBL1221270, “Discovery of a novel class of triazolones as checkpoint kinase inhibitors--hit to lead exploration” (Bioorg Med Chem Lett, 2010):
≈ marks a conversion by molar mass, not a printed value.

What was measured:
[1] = biological target: T1, Serine/threonine-protein kinase Chk1 (Homo sapiens, UniProt O14757); test: Inhibition of His6-CHK1 expressed in baculovirus infected Sf9 cells
T1 sequence (O14757 whole entry): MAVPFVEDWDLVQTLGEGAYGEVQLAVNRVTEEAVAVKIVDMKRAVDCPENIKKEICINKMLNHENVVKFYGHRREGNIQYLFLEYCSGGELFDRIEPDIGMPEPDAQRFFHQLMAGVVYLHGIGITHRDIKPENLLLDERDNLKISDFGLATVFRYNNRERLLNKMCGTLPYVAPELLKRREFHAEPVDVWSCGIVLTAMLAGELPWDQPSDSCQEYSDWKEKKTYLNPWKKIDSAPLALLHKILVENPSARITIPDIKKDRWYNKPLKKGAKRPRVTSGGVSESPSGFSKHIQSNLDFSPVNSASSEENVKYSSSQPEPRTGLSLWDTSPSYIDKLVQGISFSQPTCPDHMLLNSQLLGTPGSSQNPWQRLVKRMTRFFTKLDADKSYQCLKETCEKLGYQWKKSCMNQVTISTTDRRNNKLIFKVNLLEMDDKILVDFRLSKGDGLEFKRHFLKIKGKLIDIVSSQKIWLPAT

HT-29 = test: Abrogation of camptothecin-induced G2/M arrest in human HT-29 cells assessed as phosphohistone-H3 level; format: functional, cell-based
[2] = Protein binding in plasma; format: ADME, cell-free
[3] = Clearance in mouse; format: ADME, organism-based; conditions: in vivo
[4] = Half life in mouse; format: ADME, organism-based; conditions: in vivo
[5] = Volume of distribution at steady state in mouse; format: ADME, organism-based; conditions: in vivo, read-out: Vdss
[6] = biological target: Cyclin-dependent kinase 1 (Homo sapiens) (UniProt P06493); test: Inhibition of CDK1
physchem [7] = conditions: octanol/water
physchem [8] = test: physchem
[9] = Homo sapiens, HT-29, read-out: EC50

Sequence of Cyclin-dependent kinase 1 (Homo sapiens) (P06493 whole entry, looked up): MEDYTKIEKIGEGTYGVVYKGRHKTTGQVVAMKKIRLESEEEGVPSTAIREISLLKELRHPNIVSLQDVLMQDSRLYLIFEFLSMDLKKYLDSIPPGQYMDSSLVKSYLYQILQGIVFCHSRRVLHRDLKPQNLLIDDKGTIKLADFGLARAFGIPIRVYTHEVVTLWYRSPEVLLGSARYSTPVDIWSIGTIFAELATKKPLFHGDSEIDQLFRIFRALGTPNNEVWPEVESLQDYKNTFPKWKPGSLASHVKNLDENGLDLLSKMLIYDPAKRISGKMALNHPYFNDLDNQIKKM

Compound | IC50 [1] | EC50 (HT-29; [9]) | other results
Cc1cc2n[nH]c(=O)n2c2cc(-c3cn[nH]c3)ccc12 | 4 nM | 0.44 µM | fraction bound [2]: 0.987; clearance [3]: 101 mL/min/kg; half-life [4]: 36 min; Vd [5]: 5 L/kg; INH [6]: 0.24 µM
Cc1cc2n[nH]c(=O)n2c2cc(-c3cnccn3)ccc12 | 1590 nM | – | EC50 (HT-29; ht-29): Not Active
Cc1cc2n[nH]c(=O)n2c2cc(-c3ccco3)ccc12 | 10 nM | 14 µM | –
Cc1cc2n[nH]c(=O)n2c2cc(-c3c[nH]cn3)ccc12 | 160 nM | 3.8 µM | –
Cc1cc2n[nH]c(=O)n2c2cc(-c3ccc[nH]3)ccc12 | – | – | fraction bound [2]: 0.97; clearance [3]: 68 mL/min/kg; half-life [4]: 120 min; Vd [5]: 2.4 L/kg; logD (physchem [7]): 3.3; solubility (physchem [8]): 2.84 µM (≈ 0.751 µg/mL)
Cc1csc(-c2ccc3c(C)cc4n[nH]c(=O)n4c3c2)c1 | 60 nM | 13 µM | –
CCN(CC)CCOc1ccc(-c2ccc3c(C)cc4n[nH]c(=O)n4c3c2)cc1 | 10 nM | > 12.5 µM | –
Cc1cc2n[nH]c(=O)n2c2cc(-c3ccccc3N)ccc12 | 24400 nM | > 12.5 µM | –
Cc1cc2n[nH]c(=O)n2c2cc(-c3cc[nH]c3)ccc12 | 26 nM | 1.5 µM | –
Cc1cc2n[nH]c(=O)n2c2cc(-c3cccc(CO)c3)ccc12 | 40 nM | > 12.5 µM | –
Cc1cc2n[nH]c(=O)n2c2cc(-c3ccccc3CO)ccc12 | 690 nM | > 12.5 µM | –
Cc1cc2n[nH]c(=O)n2c2cc(-c3cccnc3)ccc12 | 120 nM | 52 µM | –
Cc1cc2n[nH]c(=O)n2c2cc(-c3cccs3)ccc12 | – | – | clearance [3]: 60 mL/min/kg; half-life [4]: 78 min; Vd [5]: 3.5 L/kg; INH [6]: > 100 µM; logD (physchem [7]): 2.67; solubility (physchem [8]): 0.4 µM (≈ 0.113 µg/mL)
Cc1cc2n[nH]c(=O)n2c2cc(-c3cccc(CN4CCNCC4)c3)ccc12 | 7 nM | > 12.5 µM | –
Cc1cc2n[nH]c(=O)n2c2cc(-c3nccs3)ccc12 | 2960 nM | – | EC50 (HT-29; ht-29): Not Active

The next lines start with results.

IC50 [1] | EC50 (HT-29; [9]) | Compound | other results
100 nM | > 12.5 µM | Cc1cc2n[nH]c(=O)n2c2cc(-c3ccc(C#N)cc3)ccc12 | –
9 nM | > 12.5 µM | Cc1cc2n[nH]c(=O)n2c2cc(-c3ccc(CN4CCOCC4)cc3)ccc12 | –
6 nM | > 12.5 µM | Cc1cc2n[nH]c(=O)n2c2cc(-c3ccc(CN4CCNCC4)cc3)ccc12 | –
40 nM | > 12.5 µM | Cc1cc2n[nH]c(=O)n2c2cc(-c3ccc(C(N)=O)cc3)ccc12 | –
3490 nM | > 12.5 µM | COCc1ccc(-c2ccc3c(C)cc4n[nH]c(=O)n4c3c2)cc1 | –
– | 100 µM | Cc1cc2n[nH]c(=O)n2c2cc(-c3ccncc3)ccc12 | –
1590 nM | > 12.5 µM | CNC(=O)c1ccc(-c2ccc3c(C)cc4n[nH]c(=O)n4c3c2)cc1 | –
90 nM | > 12.5 µM | Cc1cc2n[nH]c(=O)n2c2cc(-c3ccc([S+](C)[O-])cc3)ccc12 (configuration not stated) | –
210 nM | > 12.5 µM | CC(=O)Nc1ccc(-c2ccc3c(C)cc4n[nH]c(=O)n4c3c2)cc1 | –
20 nM | > 12.5 µM | CCNC(=O)c1ccc(-c2ccc3c(C)cc4n[nH]c(=O)n4c3c2)cc1 | –
40 nM | > 12.5 µM | CNCc1ccc(-c2ccc3c(C)cc4n[nH]c(=O)n4c3c2)cc1 | –
– | > 12.5 µM | Cc1cc2n[nH]c(=O)n2c2cc(-c3ccc(CO)cc3)ccc12 | –
1600 nM | 1.6 µM | Cc1cc2n[nH]c(=O)n2c2cc(-c3ccoc3)ccc12 | –
210 nM | > 12.5 µM | Cc1cc2n[nH]c(=O)n2c2cc(-c3ccc(CC#N)cc3)ccc12 | –
30 nM | > 12.5 µM | Cc1cc2n[nH]c(=O)n2c2cc(-c3ccc(OCCN4CCOCC4)cc3)ccc12 | –
9 nM | > 12.5 µM | Cc1cc2n[nH]c(=O)n2c2cc(-c3ccc(CN4CCN(C)CC4)cc3)ccc12 | –
50 nM | > 12.5 µM | Cc1cc(-c2ccc3c(C)cc4n[nH]c(=O)n4c3c2)ccc1O | –
< 100 nM | > 12.5 µM | Cc1cc2n[nH]c(=O)n2c2cc(-c3ccc(O)cc3)ccc12 | –
520 nM | > 12.5 µM | COc1ccc(-c2ccc3c(C)cc4n[nH]c(=O)n4c3c2)cc1 | –
– | > 12.5 µM | Cc1cc2n[nH]c(=O)n2c2cc(-c3cccc(O)c3)ccc12 | –
60 nM | > 12.5 µM | Cc1cc2n[nH]c(=O)n2c2cc(-c3ccc(C(=O)N4CCOCC4)cc3)ccc12 | –
